Test results reported in ChEMBL document CHEMBL4725353, “Discovery of Pyrido[2,3-b]indole Derivatives with Gram-Negative Activity Targeting Both DNA Gyrase and Topoisomerase IV” (J Med Chem, 2020).
In brackets after ≈: the same amount, converted by molar mass.

How the values were obtained:
in vitro = conditions: mouse, liver microsomes
Description: Intrinsic clearance in mouse liver microsomes preincubated for 10 mins followed by NADPH regenerating system addition and measured up to 30 mins by LC/MS-MS analysis

physchem = conditions: PBS, pH 6.5
Description: Solubility of compound in PBS at pH 6.5 incubated for over night by HPLC-UV based lyophilization solubility assay

Escherichia coli [1] = test: microbe, parasite or virus in culture; conditions: ATCC 29213
Description: Antibacterial activity against Escherichia coli ATCC 29213 assessed as reduction in microbial growth preincubated for 20 to 24 hrs followed by subculture in absence of compound and measured on day 4 CLSI based broth microdilution susceptibility method

Escherichia coli [2] = test: microbe, parasite or virus in culture; conditions: ATCC 25922
Description: Antibacterial activity against Escherichia coli ATCC 25922 assessed as reduction in microbial growth preincubated for 20 to 24 hrs followed by subculture in absence of compound and measured on day 4 CLSI based broth microdilution susceptibility method

[3] = Distribution coefficient between octanol and buffer, log D of the compound in pH 7.4 buffer by CAMDIS assay; format: physicochemical

| Structure (SMILES) | CLint scaled at 0.5 h (in vitro) | solubility (physchem) | MIC (Escherichia coli [1]) | MIC (Escherichia coli [2]) | logD [3] |
| --- | --- | --- | --- | --- | --- |
| CCNc1cc(F)cc2c1[nH]c1ncc(-c3cnc(C4(C(=O)O)CC4)nc3)c(-n3ccc(C(F)(F)F)n3)c12 | 43.8 mL/min/kg | 67 µg/mL (≈ 128 µM) | < 0.016 µg/mL | 0.375 µg/mL (≈ 0.714 µM) | – |
| CCNc1cc(F)cc2c1[nH]c1ncc(-c3cncc(C#N)c3)c(-n3ccc(CN)n3)c12 | – | – | 2 µg/mL (≈ 4.69 µM) | 16 µg/mL (≈ 37.5 µM) | – |
| CCNc1cc(F)cc2c1[nH]c1ncc(-c3cnc(C(C)(C)O)nc3)c(-n3ccc(C(F)(F)F)n3)c12 | 58.7 mL/min/kg | < 1 µg/mL | < 0.25 µg/mL | 1 µg/mL (≈ 2 µM) | – |
| CCNc1cc(F)cc2c1[nH]c1ncc(-c3cnc([C@@H](C)O)nc3)c(-n3ccc(C(F)(F)F)n3)c12 | 57.2 mL/min/kg | < 1 µg/mL | < 0.25 µg/mL | 0.5 µg/mL (≈ 1.03 µM) | – |
| CCNc1cc(F)cc2c1[nH]c1ncc(-c3cnc([C@H](C)O)nc3)c(-n3ccc(C(F)(F)F)n3)c12 | 52.8 mL/min/kg | < 0.2 µg/mL | < 0.25 µg/mL | 0.5 µg/mL (≈ 1.03 µM) | – |
| CCNc1cc(F)cc2c1[nH]c1ncc(-c3cncc(N4CCNCC4)c3)c(-n3ccc(C(F)(F)F)n3)c12 | – | – | 0.5 µg/mL (≈ 0.953 µM) | 8 µg/mL (≈ 15.3 µM) | 2.8 |
| CCNc1cc(F)cc2c1[nH]c1ncc(-c3cnc(C(N)=O)nc3)c(-n3ccc(C(F)(F)F)n3)c12 | 55.5 mL/min/kg | < 0.2 µg/mL | < 0.25 µg/mL | < 0.25 µg/mL | – |
| CCNc1cc(F)cc2c1[nH]c1ncc(-c3cnc(CC(=O)O)nc3)c(-n3ccc(C(F)(F)F)n3)c12 | 44 mL/min/kg | 9 µg/mL (≈ 18 µM) | < 0.016 µg/mL | 1 µg/mL (≈ 2 µM) | – |
| CCNc1cc(F)cc2c1[nH]c1ncc(-c3cncc(C#N)c3)c(-n3ncc4c3CNCC4)c12 | 20.2 mL/min/kg | – | – | 2 µg/mL (≈ 4.42 µM) | – |
| CCNc1cc(F)cc2c1[nH]c1ncc(-c3cncc(C#N)c3)c(-n3nc(C(F)(F)F)cc3CO)c12 | – | – | – | > 16 µg/mL | – |
| CCNc1cc(F)cc2c1[nH]c1ncc(-c3cncc(N4CCOCC4)c3)c(-n3ccc(C(F)(F)F)n3)c12 | – | – | < 0.25 µg/mL | 1 µg/mL (≈ 1.9 µM) | 3.64 |
| CCNc1cc(F)cc2c1[nH]c1ncc(-c3cncc(C(=O)NO)c3)c(-n3ccc(C(F)(F)F)n3)c12 | – | – | < 0.125 µg/mL | 2 µg/mL (≈ 4 µM) | 3.05 |
| CCNc1cc(F)cc2c1[nH]c1ncc(-c3cncc(Cc4ncc[nH]4)c3)c(-n3ccc(C(F)(F)F)n3)c12 | – | – | < 0.057 µg/mL | 2.83 µg/mL (≈ 5.44 µM) | 3.62 |
| CCNc1cc(F)cc2c1[nH]c1ncc(-c3cncc(C#N)c3)c(-n3ccc(C(C)C)n3)c12 | – | < 0.7 µg/mL | < 0.25 µg/mL | > 16 µg/mL | – |
| CCNc1cc(F)cc2c1[nH]c1ncc(-c3cncc(C(=O)NOC)c3)c(-n3ccc(C(F)(F)F)n3)c12 | – | – | < 0.125 µg/mL | 0.5 µg/mL (≈ 0.974 µM) | 3.41 |
| CCNc1cc(F)cc2c1[nH]c1ncc(-c3cncc(C#N)c3)c(-n3cc(C(=O)O)c(C(F)(F)F)n3)c12 | – | – | – | > 16 µg/mL | – |
| CCNc1cc(F)cc2c1[nH]c1ncc(-c3cncc(CC(N)=O)c3)c(-n3ccc(C(F)(F)F)n3)c12 | – | – | < 0.125 µg/mL | 1 µg/mL (≈ 2.01 µM) | 3.1 |
| CCNc1cc(F)cc2c1[nH]c1ncc(-c3cncc(C#N)c3)c(-n3cc(CO)c(C(F)(F)F)n3)c12 | – | – | – | 4 µg/mL (≈ 8.07 µM) | – |
| CCNc1cc(F)cc2c1[nH]c1ncc(-c3cncc(C#N)c3)c(-n3cc4c(n3)CNC4)c12 | – | – | – | 4 µg/mL (≈ 9.12 µM) | – |
| CCNc1cc(F)cc2c1[nH]c1ncc(-c3cncc(C#N)c3)c(-n3ccc(C(C)(C)C)n3)c12 | – | < 0.3 µg/mL | < 0.25 µg/mL | > 16 µg/mL | – |
| CCNc1cc(F)cc2c1[nH]c1ncc(-c3cncc(C(=N)NC)c3)c(-n3ccc(C(F)(F)F)n3)c12 | – | – | 0.5 µg/mL (≈ 1.01 µM) | 8 µg/mL (≈ 16.1 µM) | 2.28 |
| CCNc1cc(F)cc2c1[nH]c1ncc(-c3cnc(C(=O)NC)nc3)c(-n3ccc(C(F)(F)F)n3)c12 | – | – | < 0.25 µg/mL | < 0.25 µg/mL | – |
| CCNc1cc(F)cc2c1[nH]c1ncc(-c3cnc(OCC)nc3)c(-n3ccc(C(F)(F)F)n3)c12 | 37 mL/min/kg | < 0.3 µg/mL | < 0.016 µg/mL | 2 µg/mL (≈ 4.12 µM) | – |
| CCNc1cc(F)cc2c1[nH]c1ncc(-c3cncc(C#N)c3)c(-n3cnc(C(F)(F)F)c3)c12 | – | – | 0.25 µg/mL (≈ 0.537 µM) | > 16 µg/mL | – |

| Structure (SMILES) | CLint scaled at 0.5 h (in vitro) | solubility (physchem) | MIC (Escherichia coli [1]) | MIC (Escherichia coli [2]) | logD [3] |
| --- | --- | --- | --- | --- | --- |
| CCNc1cc(F)cc2c1[nH]c1ncc(-c3cnc(NCC4(C(=O)O)CC4)nc3)c(-n3ccc(C(F)(F)F)n3)c12 | – | 133 µg/mL (≈ 240 µM) | < 0.016 µg/mL | 4 µg/mL (≈ 7.21 µM) | – |
| CCNc1cc(F)cc2c1[nH]c1ncc(-c3cncc(Cc4n[nH]c(=O)o4)c3)c(-n3ccc(C(F)(F)F)n3)c12 | – | – | < 0.056 µg/mL | 0.73 µg/mL (≈ 1.36 µM) | 3.38 |
| CCNc1cc(F)cc2c1[nH]c1ncc(-c3cnc4c(c3)c(=O)c(C(=O)O)cn4C)c(-n3ccc(C(F)(F)F)n3)c12 | – | – | < 0.125 µg/mL | 1 µg/mL (≈ 1.77 µM) | 2.54 |
| CCNc1cc(F)cc2c1[nH]c1ncc(-c3cncc(C#N)c3)c(-n3ccc(C)n3)c12 | – | < 1 µg/mL | < 0.25 µg/mL | 2 µg/mL (≈ 4.86 µM) | – |
| CCNc1cc(F)cc2c1[nH]c1ncc(-c3cncc(C#N)c3)c(-n3cc(C(=O)OCC)c(C(F)(F)F)n3)c12 | – | – | – | 2 µg/mL (≈ 3.72 µM) | – |
| CCNc1cc(F)cc2c1[nH]c1ncc(-c3cnc(NC)nc3)c(-n3ccc(C(F)(F)F)n3)c12 | 53.1 mL/min/kg | < 1 µg/mL | < 0.016 µg/mL | 0.25 µg/mL (≈ 0.531 µM) | – |
| CCNc1cc(F)cc2c1[nH]c1ncc(-c3cncc(C#N)c3)c(-n3nc(C(F)F)c4c3CNC4)c12 | – | < 1 µg/mL | – | 2 µg/mL (≈ 4.09 µM) | – |
| CCNc1cc(F)cc2c1[nH]c1ncc(-c3cncc(C#N)c3)c(-n3ccc(C(=O)O)n3)c12 | – | – | > 16 µg/mL | > 16 µg/mL | – |
| CCNc1cc(F)cc2c1[nH]c1ncc(-c3cncc(C#N)c3)c(-n3cc(C(F)(F)F)cn3)c12 | – | < 1 µg/mL | < 0.016 µg/mL | 1 µg/mL (≈ 2.15 µM) | – |
| CCNc1cc(F)cc2c1[nH]c1ncc(-c3cncc(C#N)c3)c(-n3ccc(C(F)F)n3)c12 | – | < 1 µg/mL | < 0.25 µg/mL | 1 µg/mL (≈ 2.24 µM) | – |
| CCNc1cc(F)cc2c1[nH]c1ncc(-c3cncc(C#N)c3)c(-c3nc(C(F)(F)F)cs3)c12 | – | < 1 µg/mL | < 0.016 µg/mL | 0.5 µg/mL (≈ 1.04 µM) | – |
| CCNc1cc(F)cc2c1[nH]c1ncc(-c3cncc(C#N)c3)c(-n3cc(C(N)=O)c(C(F)(F)F)n3)c12 | – | – | – | > 16 µg/mL | – |
| CCNc1cc(F)cc2c1[nH]c1ncc(-c3cncc(C#N)c3)c(-c3cccc(C(F)(F)F)c3)c12 | – | – | 0.063 µg/mL (≈ 0.133 µM) | > 16 µg/mL | – |
| CCNc1cc(F)cc2c1[nH]c1ncc(-c3cncc(C#N)c3)c(-n3ncc4c3CCNC4)c12 | 52.1 mL/min/kg | 200 µg/mL (≈ 442 µM) | – | 4 µg/mL (≈ 8.84 µM) | – |
| CCNc1cc(F)cc2c1[nH]c1ncc(-c3cnc(C(=O)O)nc3)c(-n3ccc(C(F)(F)F)n3)c12 | – | – | 4 µg/mL (≈ 8.24 µM) | 16 µg/mL (≈ 33 µM) | – |
| CCNc1cc(F)cc2c1[nH]c1ncc(-c3cncc(C(=O)NC)c3)c(-n3ccc(C(F)(F)F)n3)c12 | – | – | < 0.25 µg/mL | 0.5 µg/mL (≈ 1.01 µM) | 3.42 |
| CCNc1cc(F)cc2c1[nH]c1ncc(-c3cncc(C#N)c3)c(-n3ccc(C#N)n3)c12 | – | < 1 µg/mL | < 0.016 µg/mL | 0.125 µg/mL (≈ 0.296 µM) | – |
| CCNc1cc(F)cc2c1[nH]c1ncc(-c3cnc(OC)nc3)c(-n3ccc(C(F)(F)F)n3)c12 | 20.2 mL/min/kg | < 1 µg/mL | < 0.016 µg/mL | 0.5 µg/mL (≈ 1.06 µM) | – |
| CCNc1cc(F)cc2c1[nH]c1ncc(-c3cnc(OCC(C)(C)C(=O)O)nc3)c(-n3ccc(C(F)(F)F)n3)c12 | 43.5 mL/min/kg | < 1 µg/mL | < 0.016 µg/mL | 2 µg/mL (≈ 3.59 µM) | – |
| CCNc1cc(F)cc2c1[nH]c1ncc(-c3cnc(C)nc3)c(-n3ccc(C(F)(F)F)n3)c12 | – | – | < 0.016 µg/mL | 0.5 µg/mL (≈ 1.1 µM) | – |
| CNc1cc(F)cc2c1[nH]c1ncc(-c3cnc(C4(C(=O)O)CC4)nc3)c(-n3ccc(C(F)(F)F)n3)c12 | 22.9 mL/min/kg | 148 µg/mL (≈ 289 µM) | < 0.016 µg/mL | 0.75 µg/mL (≈ 1.47 µM) | – |
| CCNc1cc(F)cc2c1[nH]c1ncc(-c3cncc(C#N)c3)c(-n3ccc(CC)n3)c12 | – | < 0.3 µg/mL | < 0.25 µg/mL | 1 µg/mL (≈ 2.35 µM) | – |
| CCNc1cc(F)cc2c1[nH]c1ncc(-c3cnc(N4CCOCC4)nc3)c(-n3ccc(C(F)(F)F)n3)c12 | 24.2 mL/min/kg | < 1 µg/mL | < 0.016 µg/mL | 1 µg/mL (≈ 1.9 µM) | – |
| CCNc1cc(F)cc2c1[nH]c1ncc(-c3cncc(C#N)c3)c(-n3nc(C(F)(F)F)cc3C)c12 | – | – | – | 8 µg/mL (≈ 16.7 µM) | – |
